US5563128A, “Phosphonate derivatives of lipophilic amines” (Rhone-Poulenc Rorer Pharmaceuticals Inc., priority 1995, dated 1996)

Molecular target: T1, squalene synthase (Rattus norvegicus, UniProt Q02769)
T1 construct: Microsomes are prepared by centrifugation (100,000 g) and then resuspended in the assay buffer; from tissue; host or cells: liver microsomes of male Sprague-Dawley rats (animals from Taconic Farms, Germantown, N.Y.)
T1 sequence (Q02769 1-416): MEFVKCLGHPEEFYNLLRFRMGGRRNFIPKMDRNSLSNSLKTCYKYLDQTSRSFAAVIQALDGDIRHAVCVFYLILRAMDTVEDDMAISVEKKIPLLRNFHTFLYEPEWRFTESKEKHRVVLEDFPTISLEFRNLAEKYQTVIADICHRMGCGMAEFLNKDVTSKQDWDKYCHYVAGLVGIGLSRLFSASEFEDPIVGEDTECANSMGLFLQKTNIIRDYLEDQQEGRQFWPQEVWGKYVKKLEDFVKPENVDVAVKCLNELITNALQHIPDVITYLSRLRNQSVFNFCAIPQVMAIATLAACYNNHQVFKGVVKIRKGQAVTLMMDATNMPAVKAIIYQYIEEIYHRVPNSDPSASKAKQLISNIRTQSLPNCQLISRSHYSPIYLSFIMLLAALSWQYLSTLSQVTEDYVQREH
Assay: Squalene Synthase Inhibition Assay (rat liver microsomes, [3H]FPP)
Assay type: biochemical, rat (male Sprague-Dawley)
Settings: for IC50: 50 mM, pH 7.4
Protocol: Squalene Synthase Inhibition Assay
I. Preparation of Assay Substances:
Test solutions are prepared fresh in 100% DMSO or dH2 O. Subsequent dilutions are made in the same solvent. Compounds are tested initially at 1 μM (final concentrations).
Potassium Phosphate (50 mM,) pH 7.4, and HEPES (4-(2-hydroxyethyl)-1-piperazineethanesulfonic acid, 50 mM) pH 7.4 stock buffers are prepared and stored at 4° C. until use.
C) Microsomal Enzyme Preparation:
Fresh livers from male Sprague-Dawley rats (Taconic Farms, Germantown, N.Y.) weighing 150-200 g are collected after exsanguination. All subsequent procedures are performed at 4° C. The liver is homogenized in the assay buffer (50 mM, pH 7.4). Cellular fractions are separated as described by Popjak, G. in "Enzymes of sterol biosynthesis in liver and intermediates of sterol biosynthesis," Meth. Enzymol. […] Microsomes are prepared by centrifugation (100,000 g) and then resuspended in the assay buffer. Microsomes are rehomogenized with a motor-driven Teflon pestle to yield a uniform suspension (~30 mg protein/ml), aliquoted, and stored at -80° C. until use.
II. Squalene Synthase Assay
The procedure is a modification of those described by Popjack (ibid) and Poulter et al. in "Squalene synthase. Inhibition by ammonium analogues of carbocationic intermediates in the conversion of presqualene diphosphate to squalene" J. Am. Chem. Soc. […] All components except [^3 H]FPP are preincubated for 10 min. at 37° C. The reaction is initiated by the addition of [^3 H]FPP. […] The tubes are incubated at 65° C. for 30 min. to solubilize proteins. The mixture is extracted with 5 ml petroleum ether for 10 min. After freezing the lower aqueous phase, the organic phase is transferred to glass tubes containing 2 ml distilled water. After washing the lower aqueous phase is frozen and the petroleum ether phase is removed and counted with 10 ml Ready Safe liquid scintillation cocktail using a Beckman LS-9000 scintillation counter. DPM values are adjusted against a blank (no enzyme).
The difference in radioactivity in the presence and absence of the test compound is used to determine the level of inhibition. […] Tallarida, R. J. and Murray, R. B. Manual of pharmacologic calculations with computer programs.

IC50 (HEPES buffer) [µM] | inhibition at 10 µM (Phosphate buffer) [%] | inhibition at 5 µM (Phosphate buffer, @ 5 μM) [%] | SMILES | inhibition at 10 µM (HEPES buffer) [%]
17 | 35 | – | O=P(O)(O)CCCN1CCC=C(c2ccc(-c3nc4ccccc4o3)cc2)C1 | –
– | – | 61 | O=P(O)(O)CCCN[C@@H]1CC=CC[C@H]1c1ccc(/C=C/c2ccccc2)cc1 (relative stereo) | -2
– | – | – | COP(=O)(O)C(CCN[C@@H]1CC=CC[C@H]1c1ccc(/C=C/c2ccccc2)cc1)P(=O)(O)OC (relative stereo) | 69
0.013 | – | – | O=P(O)(O)C(CCN[C@@H]1CCCC[C@H]1OCc1ccc(-c2nc3ccccc3o2)cc1)P(=O)(O)O (relative stereo) | –
– | – | – | CCOP(=O)(OCC)C(CCN[C@@H]1CCCC[C@H]1OCc1ccc(-c2nc3ccccc3o2)cc1)P(=O)(OCC)OCC (relative stereo) | 14
